Measured values taken from patent publication US4341784A, “Naphthyridine derivatives” (priority 1979, dated 1982).

Legend:
[1] = tested on: Gram-positive and Gram-negative bacteria including Pseudomonas aeruginosa; assay: In vivo efficacy against systemic infections, overall; parameters: species or system male mice (ddY); conditions: for therapeutic effect on systemic infections (in words): Gram-positive and Gram-negative bacteria; for therapeutic effect compared with Compound C (in words): systemic infections with Gram-negative bacteria including Pseudomonas aeruginosa
Protocol: Compounds 1, 2 and C were each dissolved in deionized water or suspended in a 0.2% aqueous solution of CMC. Each of the solutions was orally administered to mice infected with each of test organisms under the conditions described below, and the medium effective doses (ED50) obtained are shown in Table II.
Male mice (ddY) weighing about 20 g
Twice, about 5 minutes and 6 hours after infection.

[2] = tested on: Pseudomonas aeruginosa No. 12; assay: In vivo efficacy against systemic infections in mice (intraperitoneal infection); parameters: species or system male mice (ddY); conditions: NO.12, 168 h, po, twice, about 5 minutes and 6 hours after intraperitoneal infection, observed 7 days
Protocol: (§1) Each of the solutions was orally administered to mice infected with each of test organisms under the conditions described below, and the medium effective doses (ED50) obtained are shown in Table II. Male mice (ddY) weighing about 20 g (4) Pseudomonas aeruginosa No. 12: Intraperitoneal infection with about 5×10^3 cells per mouse suspended in trypto-soy broth with 4% mucin. Twice, about 5 minutes and 6 hours after infection. |Escherichia coli P-5101 for 7 days |Pseudomonas aeruginosa No. 12 | The numerals in the table show ED50 (mg/kg). ED50 values were | calculated in accordance with the BehrensKaerber method (Arch. Exp. Path. | Pharm., 162, 480 (1931)). | po: oral administration.

[3] = tested on: Streptococcus pyogenes 65-A; assay: as above; parameters: species or system male mice (ddY); conditions: 168 h, po, twice, about 5 minutes and 6 hours after intraperitoneal infection, observed 7 days
Protocol: as §1, with “(2) Streptococcus pyogenes 65-A:” for “(4) Pseudomonas aeruginosa No. 12:”, “3×10^7” for “5×10^3”, “barin heart infusion broth.” for “trypto-soy broth with 4% mucin.”, “infection. |Streptococcus pyogenes 65-A” for “infection.”, “days” for “days |Pseudomonas aeruginosa No. 12”

[4] = tested on: Staphylococcus aureus No. 50774; assay: In vivo efficacy against systemic infections in mice (intravenous infection); parameters: species or system male mice (ddY); conditions: NO.50774, 336 h, po, twice, about 5 minutes and 6 hours after intravenous infection, observed 14 days
Protocol: Each of the solutions was orally administered to mice infected with each of test organisms under the conditions described below, and the medium effective doses (ED50) obtained are shown in Table II. Male mice (ddY) weighing about 20 g (1) Staphylococcus aureus No. 50774: Intravenous infection with about 5×10^8 cells per mouse suspended in saline. Twice, about 5 minutes and 6 hours after infection. |Staphylococcus aureus No. 50774 | for 14 days | The numerals in the table show ED50 (mg/kg). ED50 values were | calculated in accordance with the BehrensKaerber method (Arch. Exp. Path. | Pharm., 162, 480 (1931)). | po: oral administration.

[5] = Acute toxicity in intravenous injection

Compound | therapeutic effect on systemic infections (in words) [1] | therapeutic effect compared with Compound C (in words) [1] | ED50 [2] [mg/kg] | ED50 [3] [mg/kg] | ED50 [4] [mg/kg] | acute toxicity in intravenous injection compared with Compound 1 (in words) [5]
CCn1cc(C(=O)O)c(=O)c2cc(F)c(N3CCC(NC)C3)nc21.Cl (centres unmarked) [Compound 2, 1-Ethyl-6-fluoro-1,4-dihydro-7-(3-methylamino-1-pyrrolidinyl)-4-oxo-1,8-naphthyridine-3-carboxylic acid hydrochloride] | potent therapeutic effects | better therapeutic effects | 6.5 | 42 | 4.8 | lower acute toxicity in intervenous injection than Compound 1
CCn1cc(C(=O)O)c(=O)c2cc(F)c(N3CCC(N)C3)nc21.Cl (centres unmarked) [Compound 1, 7-(3-Amino-1-pyrrolidinyl)-1-ethyl-6-fluoro-1,4-dihydro-4-oxo-1,8-naphthyridine-3-carboxylic acid hydrochloride] | potent therapeutic effects | better therapeutic effects | 3.7 | 21 | 3 | –
